SMILES strings stand for the structures.

In the assay the target is T1, human mAChR M1 (Homo sapiens, UniProt P11229).
T1 construct: hM1 and hM4 cDNAs were purchased from Missouri S&T cDNA Resource; host or cells: CHO-K1 cells, stably transfected with Lipofectamine2000
T1 sequence (P11229 1-460): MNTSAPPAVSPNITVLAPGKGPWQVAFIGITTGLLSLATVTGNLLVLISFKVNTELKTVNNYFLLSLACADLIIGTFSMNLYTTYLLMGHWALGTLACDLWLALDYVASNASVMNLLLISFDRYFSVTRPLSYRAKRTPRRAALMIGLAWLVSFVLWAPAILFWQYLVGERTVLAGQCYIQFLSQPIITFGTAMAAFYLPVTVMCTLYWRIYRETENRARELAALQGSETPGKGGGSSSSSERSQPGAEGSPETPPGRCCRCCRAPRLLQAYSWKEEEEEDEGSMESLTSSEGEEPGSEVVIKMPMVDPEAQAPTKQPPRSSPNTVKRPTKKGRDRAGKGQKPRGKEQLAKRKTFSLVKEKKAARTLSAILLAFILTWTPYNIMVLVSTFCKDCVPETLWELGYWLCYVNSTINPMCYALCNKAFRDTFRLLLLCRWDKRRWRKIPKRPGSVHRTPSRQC
Put plainly: mAChR M1 cell-based functional assay (calcium mobilization, PAM mode, EC20 acetylcholine). The following applies: CHO-K1 cells expressing hM1, calcium flux (Fluo-4); for Emax: EC20 acetylcholine response; for EC50: concentration-dependent increase in the EC20 acetylcholine response. The source says:
Chinese hamster ovary (CHO-K1) cells stably expressing rat (r)M1 were purchased from the American Type Culture Collection and cultured according to their indicated protocol. CHO cells stably expressing human (h)M2, hM3, and hM5 were described previously (Levey, et al., 1991); hM1 and hM4 cDNAs were purchased from Missouri S&T cDNA Resource; rM4 cDNA was provided by T. I. Bonner (National Institutes of Health, Bethesda, Md.). rM2 and rM3 were cloned from a rat brain cDNA library and sequence verified. hM1, rM2, rM3, hM4, and rM4 cDNAs were used to stably transfect CHO-K1 cells purchased from the American Type Culture Collection using Lipofectamine2000. To make stable rM2, hM2, rM3, hM4, and rM4 cell lines for use in calcium mobilization assays, these cells also were stably transfected with a chimeric G-protein (Gqi5) (provided by B. R. Conklin, University of California, San Francisco) using Lipofectamine 2000. rM1, hM1, rM3, hM3, rM5, and hM5 cells were grown in Ham's F-12 medium containing 10% heat-inactivated fetal bovine serum (FBS), 20 mM HEPES, and 50 µg/mL G418 sulfate. rM2-Gqi5, hM2-Gqi5, and hM4-Gqi5 cells were grown in the same medium also containing 500 μg/mL Hygromycin B. Stable rM4-Gqi5 cells were grown in DMEM containing 10% heat-inactivated FBS, 20 mM HEPES, 400 μg/mL G418 sulfate, and 500 μg/mL Hygromycin B.
For high throughput measurement of agonist-evoked increases in intracellular calcium, CHO-K1 cells stably expressing muscarinic receptors were plated in growth medium lacking G418 and hygromycin at 15,000 cells/20 μL/well in Greiner 384-well black-walled, tissue culture (TC)-treated, clear-bottom plates (VWR). Cells were incubated overnight at 37° C. and 5% CO2. The next day, cells were washed using an ELX 405 (BioTek) with four washes (80 μL) of assay buffer then aspirated to 20 μL. Next, 20 μL of 16 μM Fluo-4/acetoxymethyl ester (Invitrogen, Carlsbad, Calif.) prepared as a 2.3 mM stock in DMSO and mixed in a 1:1 ratio with 10% (w/v) Pluronic F-127 and diluted in assay buffer was added to the wells and the cell plates were incubated for 50 min at 37° C. and 5% CO2. Dye was removed by washing with the ELX 405 (four 80 μL washes of assay buffer) then aspirated to 20 μL. Compound master plates were formatted in an 11 point CRC format (1:3 dilutions) in 100% DMSO with a starting concentration of 10 mM using the BRAVO liquid handler (Agilent). Test compound CRCs were then transferred to daughter plates (240 nL) using the Echo acoustic plate reformatter (Labcyte, Sunnyvale, Calif.) and then diluted into assay buffer (40 μL) to a 2× stock using a Thermo Fisher Combi (Thermo Fisher Scientific, Waltham, Mass.).
Calcium flux was measured using the Functional Drug Screening System (FDSS) 6000 (Hamamatsu Corporation, Tokyo, Japan) as an increase in the fluorescent static ratio. Compounds were applied to cells (20 μL, 2×) using the automated system of the FDSS 6000 at 4 s into the 300 s protocol and the data were collected at 1 Hz. […] Agonist activity was analyzed as a concentration-dependent increase in calcium mobilization upon compound addition. Emax values for agonist activity are expressed relative to the maximum for acetylcholine. Positive allosteric modulator activity was analyzed as a concentration-dependent increase in the EC20 acetylcholine response. Antagonist activity was analyzed as a concentration-dependent decrease in the […] acetylcholine response. Concentration-response curves were generated using a four-parameter logistical equation in XLfit curve fitting software (IDBS, Bridgewater, N.J.) for Excel (Microsoft, Redmond, Wash.) or Prism (GraphPad Software, Inc., San Diego, Calif.).
Activity (EC50 and Emax) was determined in the mAChR M1 cell-based functional assay as described above and the data are shown in Table 2. The compound numbers correspond to the compound numbers used in Table 1.
A general note: A change in cytosolic calcium serves as a functional read-out for many receptors and channels.

The term Emax denotes the greatest response seen or fitted, relative to the assay's reference. The EC50 is the concentration at which the effect is half-maximal. With `O=C(N[C@H]1CCOC[C@@H]1O)c1cc(Cc2ccc(-n3cccn3)cc2)cc2cccnc12` [compound 1, N-[(3R,4S)-3-hydroxytetrahydropyran-4-yl]-6-[(4-pyrazol-1-ylphenyl)methyl]quinoline-8-carboxamide], the Emax was determined as 80% and the EC50 came out at 460 nM. Taken in the same sequence, the figures for `O=C(N[C@H]1CCCC[C@@H]1O)c1cc(Cc2ccc(-n3cccn3)cc2)cc2cccnc12` [compound 2, N-[(1S,2S)-2-hydroxycyclohexyl]-6-[(4-pyrazol-1-ylphenyl)methyl]quinoline-8-carboxamide] were 81% and 1000 nM. For `O=C(NC1CCOCC1)c1cc(Cc2ccc(-n3cccn3)cc2)cc2cccnc12` [compound 3, 6-[(4-pyrazol-1-ylphenyl)methyl]-N-tetrahydropyran-4-yl-quinoline-8-carboxamide] the same measures were 45% and 2980 nM. Taken in the same sequence, the figures for `O=C(NC1CC2(COC2)C1)c1cc(Cc2ccc(-n3cccn3)cc2)cc2cccnc12` [compound 4, N-(2-oxaspiro[3.3]heptan-6-yl)-6-[(4-pyrazol-1-ylphenyl)methyl]quinoline-8-carboxamide] were 67% and 6030 nM. On to `O=C(N[C@H]1CCC[C@@H]1O)c1cc(Cc2ccc(-n3cccn3)cc2)cc2cccnc12` [compound 5, N-[(1S,2S)-2-hydroxycyclopentyl]-6-[(4-pyrazol-1-ylphenyl)methyl]quinoline-8-carboxamide], for which the Emax was found to be 76% and the EC50 is 1660 nM. Taken in the same sequence, the figures for `O=C(N[C@H]1CC[C@@H]1O)c1cc(Cc2ccc(-n3cccn3)cc2)cc2cccnc12` [compound 6, N-[(1S,2S)-2-hydroxycyclobutyl]-6-[(4-pyrazol-1-ylphenyl)methyl]quinoline-8-carboxamide] were 57% and 5490 nM. With `O=C(N[C@H]1CCCCC[C@@H]1O)c1cc(Cc2ccc(-n3cccn3)cc2)cc2cccnc12` [compound 7, N-[(1S,2S)-2-hydroxycycloheptyl]-6-[(4-pyrazol-1-ylphenyl)methyl]quinoline-8-carboxamide], the Emax was 87% and the EC50 stood at 2030 nM. Taken in the same sequence, the figures for `O=C(NCC1CCOCC1)c1cc(Cc2ccc(-n3cccn3)cc2)cc2cccnc12` [compound 8, 6-[(4-pyrazol-1-ylphenyl)methyl]-N-(tetrahydropyran-4-ylmethyl)quinoline-8-carboxamide] were 49% and 8160 nM. For `Cn1ccc(-c2ccc(Cc3cc(C(=O)N[C@H]4CCOC[C@@H]4O)c4ncccc4c3)cn2)n1` [compound 9, N-[(3R,4S)-3-hydroxytetrahydropyran-4-yl]-6-[[6-(1-methylpyrazol-3-yl)-3-pyridyl]methyl]quinoline-8-carboxamide] the same measures were 79% and 308 nM.

As for `Cn1ccc(-c2ccc(Cc3cc(C(=O)N[C@H]4CCCCC[C@@H]4O)c4ncccc4c3)cn2)n1` [compound 10, N-[(1S,2S)-2-hydroxycycloheptyl]-6-[[6-(1-methylpyrazol-3-yl)-3-pyridyl]methyl]quinoline-8-carboxamide], the Emax was found to be 84% and the EC50 is 922 nM. For the compound `Cn1ccc(-c2ccc(Cc3cc(C(=O)N[C@H]4CCCC[C@@H]4O)c4ncccc4c3)cn2)n1` [compound 11, N-[(1S,2S)-2-hydroxycyclohexyl]-6-[[6-(1-methylpyrazol-3-yl)-3-pyridyl]methyl]quinoline-8-carboxamide], the Emax turned out to be 82% and the EC50 worked out at 384 nM. Taken in the same sequence, the figures for `Cn1ccc(-c2ccc(Cc3cc(C(=O)N[C@H]4CCC[C@@H]4O)c4ncccc4c3)cn2)n1` [compound 12, N-[(1S,2S)-2-hydroxycyclopentyl]-6-[[6-(1-methylpyrazol-3-yl)-3-pyridyl]methyl]quinoline-8-carboxamide] were 82% and 1390 nM. In the case of `Cn1ccc(-c2ccc(Cc3cc(C(=O)N[C@H]4CC[C@@H]4O)c4ncccc4c3)cn2)n1` [compound 13, N-[(1S,2S)-2-hydroxycyclobutyl]-6-[[6-(1-methylpyrazol-3-yl)-3-pyridyl]methyl]quinoline-8-carboxamide], the Emax was 75%. For `Cn1ccc(-c2ccc(Cc3cc(C(=O)NC4CC5(COC5)C4)c4ncccc4c3)cn2)n1` [compound 14, 6-[[6-(1-methylpyrazol-3-yl)-3-pyridyl]methyl]-N-(2-oxaspiro[3.3]heptan-6-yl)quinoline-8-carboxamide], the Emax stood at 73% and the EC50 was determined as 5290 nM. With `Cn1ccc(-c2ccc(Cc3cc(C(=O)NC4CCOCC4)c4ncccc4c3)cn2)n1` [compound 15, 6-[[6-(1-methylpyrazol-3-yl)-3-pyridyl]methyl]-N-tetrahydropyran-4-yl-quinoline-8-carboxamide], the Emax was found to be 66%. Regarding `Cc1nc(-c2ccc(Cc3cc(C(=O)N[C@H]4CCOC[C@@H]4O)c4ncccc4c3)cc2)co1` [compound 16, N-[(3R,4S)-3-hydroxytetrahydropyran-4-yl]-6-[[4-(2-methyloxazol-4-yl)phenyl]methyl]quinoline-8-carboxamide], the Emax was determined as 86% and the concentration for a half-maximal effect (EC50) was 438 nM. For `Cc1nc(-c2ccc(Cc3cc(C(=O)N[C@H]4CCCCC[C@@H]4O)c4ncccc4c3)cc2)co1` [compound 17, N-[(1S,2S)-2-hydroxycycloheptyl]-6-[[4-(2-methyloxazol-4-yl)phenyl]methyl]quinoline-8-carboxamide] the same measures were 65% and 1820 nM. Taken in the same sequence, the figures for `Cc1nc(-c2ccc(Cc3cc(C(=O)N[C@H]4CCCC[C@@H]4O)c4ncccc4c3)cc2)co1` [compound 18, N-[(1S,2S)-2-hydroxycyclohexyl]-6-[[4-(2-methyloxazol-4-yl)phenyl]methyl]quinoline-8-carboxamide] were 82% and 784 nM.

`Cc1nc(-c2ccc(Cc3cc(C(=O)N[C@H]4CCC[C@@H]4O)c4ncccc4c3)cc2)co1` [compound 19, N-[(1S,2S)-2-hydroxycyclopentyl]-6-[[4-(2-methyloxazol-4-yl)phenyl]methyl]quinoline-8-carboxamide]: the Emax was found to be 61% and the EC50 was 2170 nM. With `Cc1nc(-c2ccc(Cc3cc(C(=O)NC4CC5(COC5)C4)c4ncccc4c3)cc2)co1` [compound 20, 6-[[4-(2-methyloxazol-4-yl)phenyl]methyl]-N-(2-oxaspiro[3.3]heptan-6-yl)quinoline-8-carboxamide], the Emax is 48% and the EC50 was 4360 nM.

The values above are taken from patent US20200131159A1, “POSITIVE ALLOSTERIC MODULATORS OF THE MUSCARINIC ACETYLCHOLINE RECEPTOR M1” (Vanderbilt University, priority 2018, published 2020).
